Source: patent US11939294B1 (priority 2023, dated 2024)

Legend:
[1] = tested on: Mycobacterium tuberculosis H37Rv (susceptible; ATCC: 25177); experiment: Resazurin Microplate Assay (REMA), anti-tubercular activity, susceptible strain; assay type: cell-based; details: 192 h, read-out: MIC (μg/mL) Susceptible (H37Rv), H37Rv, ATCC: 25177, 8 days incubation at 37° C.

## COc1ccc(C(=O)C[n+]2cc(C)cc(C)c2)cc1.[Br-]
other
  melting point: 108 °C

## Cc1cc(C)c[n+](CC(=O)c2ccc(Cl)cc2)c1.[Br-]
other
  melting point: 125 °C

## Cc1cc(C)c[n+](CC(=O)c2ccc(Br)cc2)c1.[Br-]
other
  melting point: 210 °C

## Cc1cc(C)c[n+](CC(=O)c2ccc(F)cc2)c1.[Br-] [Compound 3d, 1-(2-(4-Fluorophenyl)-2-oxoethyl)-3,5-dimethylpyridin-1-ium bromide]
[1]
  MIC: ~8 µg/mL
other
  melting point: 123 °C
